Assay results: ChEMBL document CHEMBL1201862, “PubChem BioAssay data set” (2004)
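Tested at 5 concentrations; 48 h exposure; 96-well plates; endpoints linearly interpolated, else capped at highest concentration. Abbreviation: GI50, concentration required for 50% inhibition of growth.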 Activity calls are given as the source filed them. No stated cut-off is given here; in the data, active = GI50 up to about 1.1 µM and inactive = higher. Where a SMILES comes first, the peptide text is derived from it. The star is where a group is joined. Cbz = O=C(OCc1ccccc1)*; NHNH2 = NN*

Experiments:
Assay in all cases: NCI tumour cell line growth inhibition, 48 h
[1] = system: 786-0
[2] = system: COLO 205
[3] = system: DU-145
[4] = system: HCT-15
[5] = system: Hs-578T
[6] = system: LOX IMVI
[7] = system: M14
[8] = system: MOLT-4
[9] = system: NCI-H226
[10] = system: NCI-H460
[11] = system: SF-268
[12] = system: SK-MEL-2
[13] = system: SN12C
[14] = system: SW-620
[15] = system: UACC-257
[16] = system: UO-31
[17] = system: MDA-MB-231
[18] = system: MDA-N

SMILES	GI50 [1]	GI50 [2]	GI50 [3]	GI50 [4] [µM]	GI50 [5]	GI50 [6]	GI50 [7]	GI50 [8]	GI50 [9]	GI50 [10]	GI50 [11]	GI50 [12]	GI50 [13]	GI50 [14]	GI50 [15]	GI50 [16]	GI50 [17]	GI50 [18]
COc1cc(/C=C2\N=C(c3ccccc3)N(c3ccc(S(=O)(=O)Nc4nccs4)cc3)C2=O)ccc1O	> 100 µM (inactive)	> 100 µM (inactive)	> 100 µM (inactive)	57.5	> 100 µM (inactive)	40.3 µM (inactive)	> 100 µM (inactive)	> 100 µM (inactive)	71 µM (inactive)	> 100 µM (inactive)	51.9 µM (inactive)	> 100 µM (inactive)	> 100 µM (inactive)	77.6 µM (inactive)	> 100 µM (inactive)	> 100 µM (inactive)	–	–
CCCCNC(=O)Nc1c(C(N)=O)c2n(c1C(=O)OCC)CCCCC2	> 100 µM (inactive)	> 100 µM (inactive)	> 100 µM (inactive)	> 100	64.9 µM (inactive)	> 100 µM (inactive)	> 100 µM (inactive)	> 100 µM (inactive)	3.89 µM (inactive)	> 100 µM (inactive)	> 100 µM (inactive)	> 100 µM (inactive)	–	> 100 µM (inactive)	> 100 µM (inactive)	> 100 µM (inactive)	21.3 µM (inactive)	–
COc1cc(/C=N/N=C(\N)NO)cc(OC)c1OC	15.4 µM (inactive)	12.4 µM (inactive)	26.3 µM (inactive)	28.6	42.2 µM (inactive)	31.1 µM (inactive)	28.4 µM (inactive)	40.6 µM (inactive)	20.5 µM (inactive)	28.2 µM (inactive)	31.1 µM (inactive)	54.3 µM (inactive)	33.8 µM (inactive)	50 µM (inactive)	43.1 µM (inactive)	33.1 µM (inactive)	> 100 µM (inactive)	–
Fc1c(F)c(F)c2c(c1F)CSc1nc3ccccc3n1-2	> 100 µM (inactive)	> 100 µM (inactive)	> 100 µM (inactive)	> 100	> 100 µM (inactive)	> 100 µM (inactive)	> 100 µM (inactive)	> 100 µM (inactive)	> 100 µM (inactive)	> 100 µM (inactive)	> 100 µM (inactive)	> 100 µM (inactive)	> 100 µM (inactive)	> 100 µM (inactive)	> 100 µM (inactive)	–	> 100 µM (inactive)	–
Cn1c2c(c3ccccc31)CC(=O)N1CCCC(C1)CC21OCCO1 (stereo not drawn)	> 100 µM (inactive)	> 100 µM (inactive)	> 100 µM (inactive)	> 100	–	> 100 µM (inactive)	> 100 µM (inactive)	> 100 µM (inactive)	> 100 µM (inactive)	> 100 µM (inactive)	> 100 µM (inactive)	> 100 µM (inactive)	38.2 µM (inactive)	> 100 µM (inactive)	> 100 µM (inactive)	> 100 µM (inactive)	> 100 µM (inactive)	33.5 µM (inactive)
COC(=O)C[C@H](COCc1ccccc1)NC(=O)C[C@H](COCc1ccccc1)NC(=O)OC(C)(C)C	20.4 µM (inactive)	> 100 µM (inactive)	22.4 µM (inactive)	30.7	26.4 µM (inactive)	53.3 µM (inactive)	32.8 µM (inactive)	56 µM (inactive)	> 100 µM (inactive)	–	20 µM (inactive)	37.2 µM (inactive)	26.4 µM (inactive)	55.8 µM (inactive)	–	32.5 µM (inactive)	36.6 µM (inactive)	–
CC1=NN(c2nc(N)nc(CSCc3nc(N)nc(N(C)C)n3)n2)C(C)(C)C1	> 100 µM (inactive)	> 100 µM (inactive)	> 100 µM (inactive)	> 100	> 100 µM (inactive)	> 100 µM (inactive)	> 100 µM (inactive)	> 100 µM (inactive)	> 100 µM (inactive)	> 100 µM (inactive)	> 100 µM (inactive)	> 100 µM (inactive)	> 100 µM (inactive)	> 100 µM (inactive)	> 100 µM (inactive)	> 100 µM (inactive)	> 100 µM (inactive)	–
O=C1OC2(C(F)(F)F)Oc3ccccc3CN2C12CCCCC2 (stereo not drawn)	35.3 µM (inactive)	18.7 µM (inactive)	32.3 µM (inactive)	28.2	–	22.4 µM (inactive)	19.5 µM (inactive)	18.1 µM (inactive)	27.4 µM (inactive)	22.5 µM (inactive)	35.6 µM (inactive)	–	24.7 µM (inactive)	35.6 µM (inactive)	27 µM (inactive)	22.9 µM (inactive)	24.2 µM (inactive)	29.1 µM (inactive)
COC(=O)c1c(C)[nH]c2c1cc(O)c1nc(C)c(C)nc12	> 100 µM (inactive)	> 100 µM (inactive)	> 100 µM (inactive)	> 100	45.9 µM (inactive)	> 100 µM (inactive)	> 100 µM (inactive)	> 100 µM (inactive)	> 100 µM (inactive)	> 100 µM (inactive)	49.2 µM (inactive)	33 µM (inactive)	> 100 µM (inactive)	> 100 µM (inactive)	> 100 µM (inactive)	> 100 µM (inactive)	–	> 100 µM (inactive)
OCC1OC(n2nc(-c3ccccc3)nc2-c2cnccn2)C(O)C(O)C1O (stereo not drawn)	> 100 µM (inactive)	> 100 µM (inactive)	> 100 µM (inactive)	> 100	–	> 100 µM (inactive)	> 100 µM (inactive)	> 100 µM (inactive)	–	> 100 µM (inactive)	–	–	> 100 µM (inactive)	> 100 µM (inactive)	> 100 µM (inactive)	> 100 µM (inactive)	> 100 µM (inactive)	> 100 µM (inactive)
CSc1nc(-c2ccc(C)cc2)c(C#N)c(=O)[nH]1	> 100 µM (inactive)	> 100 µM (inactive)	> 100 µM (inactive)	> 100	> 100 µM (inactive)	–	> 100 µM (inactive)	> 100 µM (inactive)	> 100 µM (inactive)	> 100 µM (inactive)	> 100 µM (inactive)	> 100 µM (inactive)	> 100 µM (inactive)	> 100 µM (inactive)	> 100 µM (inactive)	52 µM (inactive)	> 100 µM (inactive)	–
CCOC(O)(NC(=O)C(C(F)(F)F)C(F)(F)F)C(F)(F)F (stereo not drawn)	> 100 µM (inactive)	> 100 µM (inactive)	–	> 100	> 100 µM (inactive)	> 100 µM (inactive)	> 100 µM (inactive)	> 100 µM (inactive)	–	–	> 100 µM (inactive)	> 100 µM (inactive)	> 100 µM (inactive)	> 100 µM (inactive)	> 100 µM (inactive)	> 100 µM (inactive)	–	> 100 µM (inactive)
C=C1C(=O)OC2/C=C(/C)C3(O)OC(C)(CC(OC(=O)C(C)C)C12)CC3OC(C)=O (stereo not drawn)	5.27 µM (inactive)	3.84 µM (inactive)	8.26 µM (inactive)	4.45	–	8.87 µM (inactive)	6.92 µM (inactive)	4.36 µM (inactive)	35.5 µM (inactive)	3.9 µM (inactive)	22.6 µM (inactive)	12 µM (inactive)	4.9 µM (inactive)	4.19 µM (inactive)	16.4 µM (inactive)	6.17 µM (inactive)	12.5 µM (inactive)	2.04 µM (inactive)
CC(C)CNC(=O)Cn1c2c(c3ccccc31)CCCC2	20.7 µM (inactive)	73.8 µM (inactive)	–	> 100	50.8 µM (inactive)	39.5 µM (inactive)	> 100 µM (inactive)	0.743 µM (active)	–	64.1 µM (inactive)	37.5 µM (inactive)	> 100 µM (inactive)	> 100 µM (inactive)	> 100 µM (inactive)	> 100 µM (inactive)	28.3 µM (inactive)	–	54 µM (inactive)
Cn1nc(-c2ccc(S(=O)(=O)N/C(=N/c3ccc(Cl)cc3)NN)s2)cc1C(F)(F)F	14.9 µM (inactive)	17.1 µM (inactive)	17.1 µM (inactive)	21.8	–	18.3 µM (inactive)	17.5 µM (inactive)	4.06 µM (inactive)	13.4 µM (inactive)	19.9 µM (inactive)	17.7 µM (inactive)	19.2 µM (inactive)	15.3 µM (inactive)	18.4 µM (inactive)	19.5 µM (inactive)	14.6 µM (inactive)	16.8 µM (inactive)	14.2 µM (inactive)
COc1ccc(C2=C(OC(=O)N(C)C)c3cccn3-c3cc(Cl)ccc3S2)cc1	> 10 µM (inactive)	> 10 µM (inactive)	> 10 µM (inactive)	> 10	–	> 10 µM (inactive)	> 10 µM (inactive)	7.89 µM (inactive)	–	–	> 10 µM (inactive)	–	> 10 µM (inactive)	> 10 µM (inactive)	> 10 µM (inactive)	–	> 10 µM (inactive)	> 10 µM (inactive)
CCOC(=O)CCC(NC(=O)OCc1ccccc1)C(=O)NC(CCC(=O)OCC)C(=O)NN (stereo not drawn) (Cbz-Glu(OEt)-Glu(OEt)-NHNH2; configuration not given here)	> 100 µM (inactive)	> 100 µM (inactive)	–	> 100	> 100 µM (inactive)	–	> 100 µM (inactive)	> 100 µM (inactive)	> 100 µM (inactive)	> 100 µM (inactive)	–	> 100 µM (inactive)	> 100 µM (inactive)	> 100 µM (inactive)	> 100 µM (inactive)	> 100 µM (inactive)	> 100 µM (inactive)	> 100 µM (inactive)
